A short description of the series: recombinant UMI read abundance after kanamycin selection (control-corrected) (log10(CPM+1)); higher = more efficient recombination; extreme values may be limits of the assay; sequences stand for … in AGTGCAGAGAAAATCGGCCAGTTTTCTCTGCCTGCAGTCCGCATGCCGTGGGACCCCTTGGGTTCTAACCTGTTGCCTAGATTTATGCAGCGGACTGCCTTTCTCCCAAAGTGATAAACCGG…AGGTTGGTTTCACT; site = the 11-nt donor. Put shortly: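 Reported values are log10(CPM+1) from a pooled Escherichia coli screen of donor and donor-binding-loop pairs for the IS621 bridge recombinase. Selection used IPTG (0.07 mM) plus kanamycin, against unselected plating, each in two replicates. Recombinant UMIs were amplified across the donor–target junction, sequenced, converted to CPM, averaged over replicates and scaled by control-derived factors.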
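Note: IS621 bridge recombinase in Escherichia coli cells against a fixed T5 target plasmid.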

In the case of “TACTTGGCATGGACCGGTTTTCCCGGTAATCCGTATTTGTG (site TATTTGGCTCA)”, the “recombinant UMI read abundance (log10)” value was found to be 0.00802. With “TACTTGTCATGGACCGGTTTTCCCGGTAATCCGTATTTGCT (site TACTTGACTAG)”, the “recombinant UMI read abundance (log10)” value turned out to be 0. “TACTTGTCATGGACCGGTTTTCCCGGTAATCCGTATTTGCT (site TACTTGCCTAG)”: the “recombinant UMI read abundance (log10)” value turned out to be 0.649.

Turning to “TACTTGTCATGGACCGGTTTTCCCGGTAATCCGTATTTGCT (site TACTTGGCTAG)”, the “recombinant UMI read abundance (log10)” value amounted to 0.00306. Consider “TACTTGTCATGGACCGGTTTTCCCGGTAATCCGTATTTGCT (site TACTTGTCTAG)”, for which the “recombinant UMI read abundance (log10)” value stood at 1.51.

Regarding “TACTTTCCATGGACCGGTTTTCCCGGTAATCCGTATTTGCC (site TACTTTCCTGG)”, the “recombinant UMI read abundance (log10)” value is 0. Regarding “TAGAAAACATGGACCGGTTTTCCCGGTAATCCGTATTTGCA (site TAGAAAACTTG)”, the “recombinant UMI read abundance (log10)” value was 1.54. The value for “TAGAAAACATGGACCGGTTTTCCCGGTAATCCGTATTTGCA (site TAGAACACTTG)” was 1.57; that for “TAGAAAACATGGACCGGTTTTCCCGGTAATCCGTATTTGCA (site TAGAAGACTTG)” was 0.00894. “TAGAAAACATGGACCGGTTTTCCCGGTAATCCGTATTTGCA (site TAGAATACTTG)”: the “recombinant UMI read abundance (log10)” value stood at 0. Regarding “TAGAAGACATGGACCGGTTTTCCCGGTAATCCGTATTTGCA (site TAGAAAACTTG)”, the “recombinant UMI read abundance (log10)” value stood at 0. Regarding “TAGAAGACATGGACCGGTTTTCCCGGTAATCCGTATTTGCA (site TAGAACACTTG)”, the “recombinant UMI read abundance (log10)” value is 0.985.

On to “TAGAAGACATGGACCGGTTTTCCCGGTAATCCGTATTTGCA (site TAGAAGACTTG)”, for which the “recombinant UMI read abundance (log10)” value turned out to be 2.51.

With “TAGAAGACATGGACCGGTTTTCCCGGTAATCCGTATTTGCA (site TAGAATACTTG)”, the “recombinant UMI read abundance (log10)” value was 0. As for “TAGAATACATGGACCGGTTTTCCCGGTAATCCGTATTTGCG (site TAGAATACTAG)”, the “recombinant UMI read abundance (log10)” value is 0. Regarding “TAGAATACATGGACCGGTTTTCCCGGTAATCCGTATTTGCG (site TAGAATACTCG)”, the “recombinant UMI read abundance (log10)” value stood at 2.06. As for “TAGAATACATGGACCGGTTTTCCCGGTAATCCGTATTTGCG (site TAGAATACTGG)”, the “recombinant UMI read abundance (log10)” value came out at 0. Turning to “TAGAATACATGGACCGGTTTTCCCGGTAATCCGTATTTGCG (site TAGAATACTTG)”, the “recombinant UMI read abundance (log10)” value worked out at 0.239. As to “TAGAATTCATGGACCGGTTTTCCCGGTAATCCGTATTTGTA (site TAGAATTCTTA)”, the “recombinant UMI read abundance (log10)” value was determined as 1.67. “TAGACTACATGGACCGGTTTTCCCGGTAATCCGTATTTGCA (site TAGAATACTTG)”: the “recombinant UMI read abundance (log10)” value came out at 0.379. With “TAGACTACATGGACCGGTTTTCCCGGTAATCCGTATTTGCA (site TAGACTACTTG)”, the “recombinant UMI read abundance (log10)” value was 1.62. Consider “TAGACTACATGGACCGGTTTTCCCGGTAATCCGTATTTGCA (site TAGAGTACTTG)”, for which the “recombinant UMI read abundance (log10)” value was determined as 0.0124.

In the case of “TAGACTACATGGACCGGTTTTCCCGGTAATCCGTATTTGCA (site TAGATTACTTG)”, the “recombinant UMI read abundance (log10)” value was 0.502. The value for “TAGATTACATGGACCGGTTTTCCCGGTAATCCGTATTTGTA (site TAGATTACTTA)” was 0.528; that for “TAGCAAGCATGGACCGGTTTTCCCGGTAATCCGTATTTGAA (site TAGCAAGCTTT)” was 1.45; that for “TAGCAAGCATGGACCGGTTTTCCCGGTAATCCGTATTTGAA (site TAGCCAGCTTT)” was 0.0116. Regarding “TAGCAAGCATGGACCGGTTTTCCCGGTAATCCGTATTTGAA (site TAGCGAGCTTT)”, the “recombinant UMI read abundance (log10)” value came to 0.00665. For the sequence “TAGCAAGCATGGACCGGTTTTCCCGGTAATCCGTATTTGAA (site TAGCTAGCTTT)”, the “recombinant UMI read abundance (log10)” value was 0.00716. Take “TAGCATACATGGACCGGTTTTCCCGGTAATCCGTATTTGCA (site TAGAATACTTG)”: the “recombinant UMI read abundance (log10)” value was found to be 0.
